Source: patent US20250090437A1, “COSMETIC COMPOUNDING AGENT, COSMETIC AND PRODUCTION METHOD THEREOF” (MIYOSHI OIL & FAT CO., LTD., priority 2019, published 2025)

Assay: Water retention property test 2 (hydrates)
Assay type: physicochemical
Details: hydrate (anhydrides: aqueous solution at mono- to trihydrate concentration); for Pre-test moisture rate: before the test; for Post-test moisture rate / Rate of reduction in moisture: unsealed, 24 hours at 40° C. and 25% RH
Experimental: (2) Water retention property test 2 The water retention property of the hydrate of each compound was evaluated. Hydrates were used in the cases of the compounds C1 to C38, C40 to C49 and C56 to C59; however, since the compounds C39 and C62 to C64 were anhydrides, there were used aqueous solutions prepared by adding water so that a concentration would be that of monohydrate to trihydrate. The moisture rate of the sample(s) was confirmed using a Karl Fischer moisture meter (pre-test moisture rate: A). Next, 1.0 g of each of these samples was added to a screw tube, and this screw tube, while remaining unsealed, was then left to stand still for 24 hours in a thermo-hygrostat set to 40° C. and 25% RH. A moisture rate after 24 hours was again measured (post-test moisture rate: B), followed by calculating a rate of reduction in moisture in a similar manner as above so as to evaluate the water retention property. Here, a comparative evaluation was performed on each hydrate of the compounds C1 to C38, C40 to C49 and C56 to C59 together with an aqueous solution(s) of the compound C39 having a concentration(s) corresponding to the numbers of these hydration waters.
(monohydrates in compounds C1 to C38, C40 to C49 and C56 to C59 of working examples C62 to C99, C103 to C116 with compound C39 of working example C100, compound C62 of comparative example C4, compound C63 of comparative example C7 and compound C64 of comparative example C10)
(dihydrates in compounds C1 to C38, C40 to C49 and C56 to C59 of working examples C62 to C99, C103 to C116 with compound C39 of working example C101, compound C62 of comparative example C5, compound C63 of comparative example C8 and compound C64 of comparative example C11)
(trihydrates in compounds C1 to C38, C40 to C49 and C56 to C59 of working examples C62 to C99, C103 to C116 with compound C39 of working example C102, compound C62 of comparative example C6, compound C63 of comparative example C9 and compound C64 of comparative example C12)

Row | Compound | Pre-test moisture rate [%] | Post-test moisture rate [%] | Rate of reduction in moisture [%]
1 | CCCC[N+](CCCC)(CCCC)CCCC.[Br-] [Comparative example C4] | 2.5 | 4.9 | 8.1
2 | CC(=O)[O-].C[N+](C)(C)CCO [Working example C88] | 9.9 | 9.5 | 4.0
3 | CCCC[N+](CCCC)(CCCC)CCCC.[Br-] [Comparative example C6] | 14.4 | 10.8 | 25.1
4 | CC(O)C(=O)[O-].C[N+](C)(C)CCO [Working example C90] | 8.5 | 8.1 | 4.9
5 | CC(N)(CO)CO.O=C1O[C@H]([C@@H](O)CO)C(O)=C1O [Working example C116] | 11.4 | 11.1 | 2.9
6 | OCC(O)CO [Comparative example C12] | 37.0 | 31.9 | 13.7
7 | CCC(N)(CO)CO.O=C1O[C@H]([C@@H](O)CO)C(O)=C1O [Working example C107] | 10.9 | 10.6 | 2.8
8 | C[N+](C)(C)CCO.[Cl-] [Working example C96] | 11.4 | 10.7 | 6.0
9 | NC(CO)CO.O=C(O)CC(O)(CC(=O)O)C(=O)O [Working example C71] | 11.3 | 10.7 | 5.4
10 | CCC(N)(CO)CO.O=C(O)CC(O)(CC(=O)O)C(=O)O [Working example C77] | 10.4 | 9.9 | 4.9
11 | C[N+](C)(C)CCO.O=C([O-])CO [Working example C89] | 9.1 | 8.9 | 2.6
12 | CC(O)C(=O)O.N (stereo not drawn) [Working example C85] | 14.4 | 13.7 | 4.7
13 | O=C1OC(C(O)CO)C(O)=C1O.OCCN(CCO)CCO (stereo not drawn) [Comparative example C105] | 10.0 | 9.8 | 2.0
14 | Cl.NC(CO)CO [Working example C75] | 22.0 | 19.7 | 10.5
15 | F[B-](F)(F)F.[NH3+]C(CO)CO [Working example C73] | 16.8 | 15.9 | 5.5
16 | C[N+](C)(CCO)CC(O)CO.[Cl-] (stereo not drawn) [Working example C98] | 15.3 | 14.0 | 8.7
17 | CC(O)C(=O)[O-].CCCC[N+](CCCC)(CCCC)CCCC [Working example C100] | 5.2 | 4.9 | 6.4
18 | CC(=O)OCC[N+](C)(C)C.O=C1O[C@H]([C@@H](O)CO)C([O-])=C1O [Working example C112] | 10.1 | 9.9 | 2.0
19 | CS(=O)(=O)O.NC(CO)(CO)CO [Working example C83] | 14.2 | 14.0 | 1.1
20 | CC(O)C(=O)O.NCC(O)C(O)C(O)C(O)CO (stereo not drawn) [Working example C84] | 11.7 | 11.4 | 2.8
21 | CC(C)(N)CO.CC(O)C(=O)O [Working example C113] | 16.7 | 16.3 | 2.5
22 | CC(N)(CO)CO.CC(O)C(=O)O [Working example C114] | 15.6 | 15.2 | 2.8
23 | O=C1O[C@H]([C@@H](O)CO)C(O)=C1O.OCCNCCO [Comparative example C104] | 11.4 | 11.0 | 3.5

Row | Compound | Pre-test moisture rate [%] | Post-test moisture rate [%] | Rate of reduction in moisture [%]
24 | CC(C)(N)CO.O=C1OC(C(O)CO)C(O)=C1O (stereo not drawn) [Working example C115] | 12.0 | 11.7 | 2.9
25 | CC[N+](C)(C)CCO.CS(=O)(=O)[O-] [Working example C97] | 7.8 | 7.7 | 1.9
26 | CS(=O)(=O)[O-].C[N+](C)(C)CCO [Working example C93] | 8.3 | 8.1 | 2.0
27 | CC(O)C(=O)O.OCCN(CCO)CCO [Working example C66] | 18.4 | 17.7 | 3.8
28 | C[N+](C)(C)CCO.O=P([O-])(O)O [Working example C94] | 8.2 | 8.0 | 2.8
29 | CCCCn1cc[n+](C)c1.F[B-](F)(F)F [Comparative example C9] | 19.3 | 11.2 | 42.1
30 | CC(O)C(=O)[O-].OCC[N+](CCO)(CCO)CCO [Working example C87] | 11.2 | 10.7 | 4.8
31 | C[N+](C)(C)CCO.O=[PH2][O-] [Working example C95] | 9.6 | 9.3 | 2.9
32 | C[N+](C)(C)CCO.O=C([O-])CCC(=O)O [Working example C92] | 7.5 | 7.1 | 5.0
33 | NCCO.O=C1O[C@H]([C@@H](O)CO)C(O)=C1O [Working example C103] | 13.2 | 13.0 | 1.5
34 | CS(=O)(=O)O.NC(CO)CO [Working example C72] | 16.1 | 16.0 | 0.4
35 | C[N+](C)(C)CCO.O=C1OC(C(O)CO)C([O-])=C1O (stereo not drawn) [Working example C110] | 11.4 | 11.2 | 1.8
36 | CCCCn1cc[n+](C)c1.F[B-](F)(F)F [Comparative example C7] | 7.4 | 3.9 | 47.3
37 | NC(CO)CO.O=C(O)CO [Working example C68] | 17.7 | 17.3 | 2.0
38 | Br.NC(CO)CO [Working example C74] | 17.3 | 15.7 | 9.5
39 | CC(=O)O.NC(CO)CO [Working example C67] | 19.3 | 18.8 | 2.8
40 | CCC(N)(CO)CO.Cl [Working example C80] | 18.8 | 17.0 | 9.8
41 | CC(O)C(=O)O.NC(CO)(CO)CO [Working example C81] | 13.2 | 12.9 | 2.6
42 | CC(O)C(=O)O.NCCO (stereo not drawn) [Working example C62] | 10.7 | 10.5 | 1.9
43 | Br.CCC(N)(CO)CO [Working example C79] | 15.3 | 13.9 | 8.9
44 | CCC(N)(CO)CO.CS(=O)(=O)O [Working example C78] | 14.3 | 14.2 | 0.9
45 | CC(O)C(=O)[O-].CCC(CO)(CO)[N+](CC(O)CO)(CC(O)CO)CC(O)CO (stereo not drawn) [Working example C86] | 7.9 | 7.5 | 4.8
46 | CCCCn1cc[n+](C)c1.F[B-](F)(F)F [Comparative example C8] | 13.8 | 7.1 | 48.6
